Experimental data reported in patent US6753330B2, “Solid dispersion composition” (Kowa Co., Ltd., priority 2002, dated 2004).

What was measured:
[1] = test system: production of interleukin 1β; conditions: disclosed in JP Laid-Open No. 2000-198776; cited from earlier work
[2] = Solubility of compound 1 in water; format: physicochemical

solubility in water (in words) [2]: exceptionally poor solubility in water
Compound: CSc1ccc(-c2nn(Cc3ccccc3)c(=O)cc2-c2ccc(Cl)cc2)cc1 [compound 1, 2-benzyl-5-(4-chlorophenyl)-6-[4-(methylthio)phenyl]-2H-pyridazin-3-one]
effect for suppressing production of interleukin 1β (in words) [1]: excellent effect
